Measurements published in ChEMBL document CHEMBL3792297, “Studies on phenothiazines: New microtubule-interacting compounds with phenothiazine A-ring as potent antineoplastic agents” (Bioorg Med Chem, 2016).

Assays:
[1] = Growth inhibition of human OVCAR4 cells at 10 uM after 48 hrs by SRB assay relative to control; type: functional; settings: OVCAR-4, 48 h, read-out: GI
[2] = Growth inhibition of human NCI-ADR-RES cells at 10 uM after 48 hrs by SRB assay relative to control; type: functional; settings: read-out: GI
T47D = assay: Growth inhibition of human T47D cells at 10 uM after 48 hrs by SRB assay relative to control; type: functional; settings: read-out: GI
[3] = Growth inhibition of human SNB19 cells at 10 uM after 48 hrs by SRB assay relative to control; type: functional; settings: SNB-19, 48 h, read-out: GI
[4] = Growth inhibition of human SF268 cells at 10 uM after 48 hrs by SRB assay relative to control; type: functional; settings: SF-268, 48 h, read-out: GI
A498 = assay: Growth inhibition of human A498 cells at 10 uM after 48 hrs by SRB assay relative to control; type: functional; settings: A498, 48 h, read-out: GI
[5] = Growth inhibition of human UACC257 cells at 10 uM after 48 hrs by SRB assay relative to control; type: functional; settings: UACC-257, 48 h, read-out: GI
ACHN = assay: Growth inhibition of human ACHN cells at 10 uM after 48 hrs by SRB assay relative to control; type: functional; settings: read-out: GI
A549 = assay: Growth inhibition of human A549 cells at 10 uM after 48 hrs by SRB assay relative to control; type: functional; settings: A549, 48 h, read-out: GI
[6] = Growth inhibition of human SNB75 cells at 10 uM after 48 hrs by SRB assay relative to control; type: functional; settings: SNB-75, 48 h, read-out: GI
KM12 = assay: Growth inhibition of human KM12 cells at 10 uM after 48 hrs by SRB assay relative to control; type: functional; settings: KM12, 48 h, read-out: GI
SK-MEL-2 = assay: Growth inhibition of human SK-MEL-2 cells at 10 uM after 48 hrs by SRB assay relative to control; type: functional; settings: SK-MEL-2, 48 h, read-out: GI
[7] = Growth inhibition of human HL-60(TB) cells at 10 uM after 48 hrs by SRB assay relative to control; type: functional; settings: HL-60, 48 h, read-out: GI
SN12C = assay: Growth inhibition of human SN12C cells at 10 uM after 48 hrs by SRB assay relative to control; type: functional; settings: read-out: GI
Malme-3M = assay: Growth inhibition of human MALME-3M cells at 10 uM after 48 hrs by SRB assay relative to control; type: functional; settings: read-out: GI
M14 = assay: Growth inhibition of human M14 cells at 10 uM after 48 hrs by SRB assay relative to control; type: functional; settings: M14, 48 h, read-out: GI
K562 = assay: Growth inhibition of human K562 cells at 10 uM after 48 hrs by SRB assay relative to control; type: functional; settings: K562, 48 h, read-out: GI
[8] = Growth inhibition of human BT549 cells at 10 uM after 48 hrs by SRB assay relative to control; type: functional; settings: BT-549, 48 h, read-out: GI
[9] = Growth inhibition of human RXF393 cells at 10 uM after 48 hrs by SRB assay relative to control; type: functional; settings: RXF 393, 48 h, read-out: GI
[10] = Growth inhibition of human COLO205 cells at 10 uM after 48 hrs by SRB assay relative to control; type: functional; settings: COLO 205, 48 h, read-out: GI
[11] = Growth inhibition of human RPMI8226 cells at 10 uM after 48 hrs by SRB assay relative to control; type: functional; settings: RPMI-8226, 48 h, read-out: GI
[12] = Growth inhibition of human HOP92 cells at 10 uM after 48 hrs by SRB assay relative to control; type: functional; settings: HOP-92, 48 h, read-out: GI
Ovis aries = species: Ovis aries; assay: Inhibition of sheep brain tubulin polymerization at 100 uM by DAPI staining-based fluorimetric method
[13] = Growth inhibition of human MOLT4 cells at 10 uM after 48 hrs by SRB assay relative to control; type: functional; settings: MOLT-4, 48 h, read-out: GI
U-251 = assay: Growth inhibition of human U251 cells at 10 uM after 48 hrs by SRB assay relative to control; type: functional; settings: U-251, 48 h, read-out: GI
[14] = Growth inhibition of human SW620 cells at 10 uM after 48 hrs by SRB assay relative to control; type: functional; settings: SW-620, 48 h, read-out: GI
[15] = Growth inhibition of human IGROV1 cells at 10 uM after 48 hrs by SRB assay relative to control; type: functional; settings: IGROV-1, 48 h, read-out: GI
[16] = Growth inhibition of human HCT15 cells at 10 uM after 48 hrs by SRB assay relative to control; type: functional; settings: HCT-15, 48 h, read-out: GI
[17] = Growth inhibition of human OVCAR5 cells at 10 uM after 48 hrs by SRB assay relative to control; type: functional; settings: OVCAR-5, 48 h, read-out: GI
NCI-H23 = assay: Growth inhibition of human NCI-H23 cells at 10 uM after 48 hrs by SRB assay relative to control; type: functional; settings: NCI-H23, 48 h, read-out: GI
[18] = Growth inhibition of human SF295 cells at 10 uM after 48 hrs by SRB assay relative to control; type: functional; settings: SF-295, 48 h, read-out: GI
MDA-MB-231 = assay: Growth inhibition of human MDA-MB-231 cells at 10 uM after 48 hrs by SRB assay relative to control; type: functional; settings: MDA-MB-231, 48 h, read-out: GI
[19] = Growth inhibition of human TK10 cells at 10 uM after 48 hrs by SRB assay relative to control; type: functional; settings: TK-10, 48 h, read-out: GI
[20] = Growth inhibition of human HCT116 cells at 10 uM after 48 hrs by SRB assay relative to control; type: functional; settings: HCT-116, 48 h, read-out: GI
[21] = Growth inhibition of human HCC2998 cells at 10 uM after 48 hrs by SRB assay relative to control; type: functional; settings: HCC 2998, 48 h, read-out: GI
MCF7 = assay: Growth inhibition of human MCF7 cells at 10 uM after 48 hrs by SRB assay relative to control; type: functional; settings: MCF7, 48 h, read-out: GI
[22] = Growth inhibition of human UACC62 cells at 10 uM after 48 hrs by SRB assay relative to control; type: functional; settings: UACC-62, 48 h, read-out: GI
[23] = Growth inhibition of human Hs 578T cells at 10 uM after 48 hrs by SRB assay relative to control; type: functional; settings: read-out: GI
[24] = Growth inhibition of human DU145 cells at 10 uM after 48 hrs by SRB assay relative to control; type: functional; settings: DU-145, 48 h, read-out: GI
[25] = Growth inhibition of human Caki1 cells at 10 uM after 48 hrs by SRB assay relative to control; type: functional; settings: CAKI-1, 48 h, read-out: GI

| SMILES | inhibition of growth at 10 µM [1] | inhibition of growth at 10 µM [2] | inhibition of growth at 10 µM (T47D) | inhibition of growth at 10 µM [3] | inhibition of growth at 10 µM [4] | inhibition of growth at 10 µM [5] | inhibition of growth at 10 µM (ACHN) | inhibition of growth at 10 µM (A549) | inhibition of growth at 10 µM [6] | inhibition of growth at 10 µM (KM12) | inhibition of growth at 10 µM (SK-MEL-2) | inhibition of growth at 10 µM [7] | inhibition of growth at 10 µM (SN12C) | inhibition of growth at 10 µM (Malme-3M) | inhibition of growth at 10 µM (M14) | inhibition of growth at 10 µM (K562) | inhibition of growth at 10 µM [8] | inhibition of growth at 10 µM [9] | inhibition of growth at 10 µM [10] | inhibition of growth at 10 µM [11] | also measured |
| --- | --- | --- | --- | --- | --- | --- | --- | --- | --- | --- | --- | --- | --- | --- | --- | --- | --- | --- | --- | --- | --- |
| COc1ccc(C(=O)N2c3ccccc3Sc3ccccc32)c(C(F)(F)F)c1 | 53% | 97% | 48% | 69% | 65% | 38% | 68% | 75% | 71% | 82% | 53% | 98% | 60% | 40% | 98% | 100% | 89% | 85% | 100% | 86% | inhibition of growth at 10 µM (A498): 91%; inhibition of growth at 10 µM [12]: 85%; inhibition (Ovis aries): 80%; inhibition of growth at 10 µM [13]: 85%; inhibition of growth at 10 µM (U-251): 81%; inhibition of growth at 10 µM [14]: 75%; inhibition of growth at 10 µM [15]: 62%; inhibition of growth at 10 µM [16]: 82%; inhibition of growth at 10 µM [17]: 55%; inhibition of growth at 10 µM (NCI-H23): 76%; inhibition of growth at 10 µM [18]: 95%; inhibition of growth at 10 µM (MDA-MB-231): 76%; inhibition of growth at 10 µM [19]: 43%; inhibition of growth at 10 µM [20]: 93%; inhibition of growth at 10 µM [21]: 74%; inhibition of growth at 10 µM (MCF7): 83%; inhibition of growth at 10 µM [22]: 68%; inhibition of growth at 10 µM [23]: 76%; inhibition of growth at 10 µM [24]: 86%; inhibition of growth at 10 µM [25]: 68% |
| O=C(c1ccc2c(c1)Sc1ccccc1N2)c1c[nH]c2ccccc12 | 39% | 100% | 72% | 41% | 45% | 43% | 45% | 77% | 100% | 87% | 94% | 85% | 57% | 49% | 86% | 81% | 69% | 91% | 100% | 56% | inhibition of growth at 10 µM (A498): 92%; inhibition of growth at 10 µM [12]: 28%; inhibition (Ovis aries): 66%; inhibition of growth at 10 µM [13]: 73%; inhibition of growth at 10 µM (U-251): 83%; inhibition of growth at 10 µM [14]: 71%; inhibition of growth at 10 µM [15]: 71%; inhibition of growth at 10 µM [16]: 68%; inhibition of growth at 10 µM [17]: 60%; inhibition of growth at 10 µM (NCI-H23): 68%; inhibition of growth at 10 µM [18]: 96%; inhibition of growth at 10 µM (MDA-MB-231): 54%; inhibition of growth at 10 µM [19]: 63%; inhibition of growth at 10 µM [20]: 82%; inhibition of growth at 10 µM [21]: 64%; inhibition of growth at 10 µM (MCF7): 80%; inhibition of growth at 10 µM [22]: 46%; inhibition of growth at 10 µM [23]: 100%; inhibition of growth at 10 µM [24]: 91%; inhibition of growth at 10 µM [25]: 66% |
| COc1ccc(C(=O)N2c3ccccc3Sc3ccccc32)cc1F | 59% | 100% | 49% | 45% | 58% | 50% | 50% | 83% | 81% | 81% | 100% | 89% | 66% | 45% | 92% | 82% | 83% | 84% | 100% | 44% | inhibition of growth at 10 µM [12]: 45%; inhibition (Ovis aries): 99%; inhibition of growth at 10 µM [13]: 67%; inhibition of growth at 10 µM (U-251): 90%; inhibition of growth at 10 µM [14]: 80%; inhibition of growth at 10 µM [15]: 70%; inhibition of growth at 10 µM [16]: 76%; inhibition of growth at 10 µM [17]: 57%; inhibition of growth at 10 µM (NCI-H23): 86%; inhibition of growth at 10 µM [18]: 89%; inhibition of growth at 10 µM (MDA-MB-231): 69%; inhibition of growth at 10 µM [19]: 49%; inhibition of growth at 10 µM [20]: 85%; inhibition of growth at 10 µM [21]: 82%; inhibition of growth at 10 µM (MCF7): 82%; inhibition of growth at 10 µM [22]: 62%; inhibition of growth at 10 µM [23]: 100%; inhibition of growth at 10 µM [24]: 95%; inhibition of growth at 10 µM [25]: 48% |
| O=C(c1ccc(F)cc1F)N1c2ccccc2Sc2ccccc21 | 17% | 55% | 35% | 37% | 46% | 44% | 20% | 48% | 31% | 62% | 19% | 71% | 9% | 44% | 35% | 82% | 43% | 35% | 56% | 47% | inhibition of growth at 10 µM (A498): 38%; inhibition of growth at 10 µM [12]: 39%; inhibition (Ovis aries): 25%; inhibition of growth at 10 µM [13]: 69%; inhibition of growth at 10 µM (U-251): 66%; inhibition of growth at 10 µM [14]: 66%; inhibition of growth at 10 µM [15]: 33%; inhibition of growth at 10 µM [16]: 76%; inhibition of growth at 10 µM [17]: 21%; inhibition of growth at 10 µM (NCI-H23): 23%; inhibition of growth at 10 µM [18]: 36%; inhibition of growth at 10 µM (MDA-MB-231): 38%; inhibition of growth at 10 µM [19]: 23%; inhibition of growth at 10 µM [20]: 73%; inhibition of growth at 10 µM [21]: 47%; inhibition of growth at 10 µM (MCF7): 48%; inhibition of growth at 10 µM [22]: 68%; inhibition of growth at 10 µM [23]: 16%; inhibition of growth at 10 µM [24]: 20%; inhibition of growth at 10 µM [25]: 51% |
